According to patent US8093220B2, “Combination of an HDAC inhibitor and an antimetabolite” (Novartis AG, priority 2006, dated 2012):
Where “and” joins values, the source holds several entries; their conditions need not be identical. Equal entries are not always repeated.

Legend:
AML cell line U937 = test: Western immunoblotting of U937 cells for acetylated tubulin, p21 and PARP; type: cell-based; conditions: 2 μM 5-aza, 10 nM LBH589 or combination, 24 hours, western blot (FIG. 1)
Method: The AML cell line U937 is incubated with LBH589 or 5-aza as single agents or in combination.
U937 cells are treated with 2 μM 5-aza, 10 nM LBH589 or with a combination of 5-aza+LBH589 for 24 hours. Cells are lysed, proteins separated by SDS-PAGE and western immunoblotting analysis done with antibodies against acetylated tubulin, p21, PARP and β-actin (control for loading).

[1] = system: primary human AML blast cells; test: Loss of viability of primary patient AML cells, trypan-blue exclusion; type: cell-based; conditions: one table row per patient (1-6)
Method: To further test the combination of LBH589+5-aza to induce cell death in AML, the U937 AML cell lines and fresh leukemia blast cells from AML patients are incubated with the compounds either as a combination or as single agents. Cell death is either monitored by cells staining for Annexin V (signifying apoptosis) or by counting live cells by trypan-blue exclusion. […] Importantly, no antagonism is observed when the two compounds are combined. […] Trypan-blue exclusion is used to count number of viable cells and percentage of dead cells for each treatment calculated and tabulated.

| SMILES | PARP cleavage as a measure of apoptotic cell death (AML cell line U937) | acetylation of alpha-tubulin (AML cell line U937) | expression of the cell growth inhibitor p21 (AML cell line U937) | % Cell Death ([1]; Aza 1 μM, listed as Aza) | % Cell Death ([1]; Aza 2 μM, listed as Aza) | % Cell Death ([1]; LBH-589 10 nM) | % Cell Death ([1]; LBH-589 50 nM) |
| --- | --- | --- | --- | --- | --- | --- | --- |
| Nc1ncn([C@@H]2O[C@H](CO)[C@@H](O)[C@H]2O)c(=O)n1 [5-aza, 5-azacytidine] | only a slight PARP cleavage | not | induces the expression | 8.6% and 16.5% and 25.9% and 13.1% and 15% and 19.3% | 10.1% and 19.3% and 28.5% and 15.9% and 22.6% and 40.4% | – | – |
| Cc1[nH]c2ccccc2c1CCNCc1ccc(/C=C/C(=O)NO)cc1 [LBH589, N-hydroxy-3-[4-[[[2-(2-methyl-1H-indol-3-yl)-ethyl]-amino]methyl]phenyl]-2E-2-propenamide] | only a slight PARP cleavage | induces increased acetylation | induces the expression | – | – | 15.4% and 22.3% and 41.9% and 19.5% and 73.7% and 35.9% | 45.1% and 34.2% and 62.6% and 41.6% and 85.6% and 48.9% |
